The record followed here is patent US8598125B2, “CDCA1 peptide and pharmaceutical agent comprising the same” (Onco Therapy Science, Inc., priority 2007, dated 2013).

Common to all, as to format: cell-based
For one data set, the system named is peptide-pulsed T2 cells. Put plainly: 51Cr release assay of peptide-induced human CTLs against peptide-pulsed T2 cells. As to conditions: CTLs from cancer patient donor 1 and healthy donor 1. The source says:
(§1) Monocyte-derived DC cells were used as antigen-presenting cells for induction of CTLs in response to HLA-presented peptides. DCs were obtained by previously reported in vitro methods (Suda T, et al. Cancer Sci. 2007; Nakahara S, et al. Cancer Res. 2003; 63:4112-8). Briefly, peripheral blood […] (PBMCs) isolated from HLA-A*0201 positive healthy volunteers and NSCLC patients using a Ficoll-Paque solution (GE Healthcare UK, Ltd., Buckinghamshire, UK) were screened for […] CD14 positive populations using MicroBeads (Miltenyi Biotec, Bergisch Gladbach, Germany). […] Six days after the third peptide stimulation on day 25, the antigen-specific CTL response was evaluated by Chromium (Cr) release assay and IFN-γ ELISPOT assay.
(§2) CTLs were co-cultured at various effector cell/target cell ratios with target cells which are various cancer cell lines and T2 cells with or without peptide pulsing, and ^51Cr release assay and IFN-γ ELISPOT assay were conducted using conventional methods (Komori H, et al., Clin. Cancer Res. 2006; 12:2689-2697; Makita M, et al. Clin. Cancer Res. 2002; 8:2626-31; Yokomine K, et al. Cancer Sci. 2007; 98:1930-5). […] Six hours after incubation, 50 μL of the supernatant was collected from each well, and radioactivity was quantified using a gamma counter. […]

Data set [1] deals with PANC1 cells (CDCA1+, HLA-A2+). Description: 51Cr release assay of peptide-induced human CTLs against PANC1. As to conditions: No. 1: cancer patient donor 1 CTLs; No. 4: healthy donor 1 CTLs.
Description: as §1, §2

For data set [2], the system named is A549 cells (CDCA1+, HLA-2−). Put plainly: 51Cr release assay of peptide-induced human CTLs against A549. The conditions noted are these: No. 1: cancer patient donor 1 CTLs; No. 4: healthy donor 1 CTLs.
Description: as §1, §2

In data set [3] the test system is COLO201 cells (CDCA1−, HLA-A2+). Put plainly: 51Cr release assay of peptide-induced human CTLs against COLO201. The conditions noted are these: cancer patient donor 1 CTLs.
Description: as §1, §2

Where no end group is shown, it is not given here.

Turning to KLATAQFKI [No. 4, KLATAQFKI], in the data set with peptide-pulsed T2 cells, the “cytotoxic activity against peptide-pulsed T2 cells” value was “showed cytotoxic activity”. Also, the “cytotoxic activity against PANC1 cells” value in data set [1] is given as “showed cytotoxic activity”. Also, the “cytotoxic activity against A549 cells” value in data set [2] is on record as “not”.
Turning to YMMPVNSEV [No. 1, YMMPVNSEV], the “cytotoxic activity against peptide-pulsed T2 cells” value with peptide-pulsed T2 cells was “showed cytotoxic activity”. Besides, the “cytotoxic activity against PANC1 cells” value in data set [1] is “showed cytotoxic activity”. Besides, the “cytotoxic activity against A549 cells” value in data set [2] was “not”. Moreover, the “cytotoxic activity against COLO201 cells” value in data set [3] was “not”.
